Data: patent publication USRE39682E1, “Farnesyl derivatives and pharmaceutical compositions containing them” (Ramot at Tel Aviv University Ltd., priority 1993, dated 2007)

What was measured:
[1] = test system: human endometrial carcinoma HEC1A cells; assay: Growth of HEC1A cells (cell counting); assay type: cell-based; conditions: 3 days of treatment
Description: (§1) The cell lines employed were rat1, -EJ, which are rat1 cells stably expressing Val- 12 activated human Ha-ras gene (Land H. et al., Nature, 304, 596-602, (1983)); V-raf-3T3, which are 3T3 cells stably expressing the V-raf gene (Xu, N., et al., Proc. Natl. Acad. Sci., 90, 6741-6745); RB-22, which are 3T3 cells stably expressing the rat Erb-B2 gene (Peles, et al., EMBO J., 10, 2077-2086 (1991)) CO6O cells (SV40-CHO), which are CHE cells stably expressing the SV-40 T-antigen gene (Lavi, Proc. Natl. Acad. Sci., 78, 6144-6148 (1981)); human endometrial carcinoma cell line HEC1A, which are cells that express activated K-ras (Enomoto T., Cancer Res., 50, 6139-6145; mouse B16F10 melanoma cells, rat pheochromocytoma PC12 cells, […] cells CHE and COS cells.
(§2) HEC1A, V-raf-3T3 and SV40-CHE cells were grown in Dulbecco's modified Eagle medium (DMEM) containing 10% fetal calf serum (FCS), 4 mM L-glutamine, 10 μg/ml streptomycin and 10 U/ml penicillin. Rat1 and -EJ cells were grown in the same medium except that it was supplemented with 12.5 U/ml nyostatin. RB-22 cells were grown in modified DMEM (1 mM sodium pyruvate, 20 mM sodium bicarbonate)/10% FCS containing 4 mM L-glutamine, […] streptomycin, 10 U/ml penicillin. PC-12 cells were grown in DMEM 15% FCS/5% horse serum and the above noted antibiotics.
(§3) HEC1A cells were plated in 24 well plates at a density of 5×10^3 cells per well and fed with 1 ml of medium. The cells were grown at 37° C. in a humidified atmosphere of 95%/5% air/CO2. All other cell types employed were plated in 24 well plates at a density of 2×10^3 cells per well and fed with the appropriate medium.
(§4) Cultures were treated with farnesyl derivatives or with solvent either 3 hrs following plating or one day after plating as indicated. The drugs were prepared in DMSO to yield the final desired drug (0.1-50 μM) concentration and 0.1% DMSO. Control cultures received 0.1% DMSO only. Cultures were fed on days 6, 7 and 9 of the experiment with the drugs or with solvent-containing media.
Cells were counted following 3, 7 and 10 days of beginning of treatments with drugs. For counting, cells were detached from plates with trypsin/EDTA, and collected by a low speed spin in the presence of DMEM/10% FCS. The pelleted cells were resuspended in a small volume of DMEM/10% FCS and counted under the microscope. Viability of cells was estimated by staining with (3-(4,5-dimethylthiosol-2-yl)-2,5-diphenyltetrazolium bromide (MTT) and microscopic examination of the stained and unstained cells, or spectrophotometric estimation (OD490, 590) of the total stain in each well. Non viable cells were estimated by the trypan blue exclusion method. […]

[2] = test system: Ha-ras-transformed rat1 cells; assay: Growth of ras-transformed rat1 cells (cell counting); assay type: cell-based, rat; conditions: for EC50: Rattus norvegicus, 168 h, day 7 of drug treatment, estimated from dose response curves, read-out: Inhibition of rab-transformed rat1 cell growth EC50
Description: as §1, §2, §3
Cultures were treated with farnesyl derivatives or with solvent either 3 hrs following plating or one day after plating as indicated. […] Control cultures received 0.1% DMSO only. Cultures were fed on days 6, 7 and 9 of the experiment with the drugs or with solvent-containing media.
Cells were counted following 3, 7 and 10 days of beginning of treatments with drugs. For counting, cells were detached from plates with trypsin/EDTA, and collected by a low speed spin in the presence of DMEM/10% FCS. The pelleted cells were resuspended in a small volume of DMEM/10% FCS and counted under the microscope. Viability of cells was estimated by staining with (3-(4,5-dimethylthiosol-2-yl)-2,5-diphenyltetrazolium bromide (MTT) and microscopic examination of the stained and unstained cells, or spectrophotometric estimation (OD490, 590) of the total stain in each well. Non viable cells were estimated by the trypan blue exclusion method.
Cells were plated at a density 2×10^3/well and received either solvent or drugs one day later. Following 3, 7, or 10 days of the drugs-treatment as described above, cells were collected and the number of cells in each well was estimated by direct counting. […] The effect was apparent after a delay of at least three days. About 40-60% inhibition of cell growth was induced either by FTA or by FTS observed on days 7 and 10 of the treatment.

untransformed rat1 cells = assay: Growth of untransformed rat1 cells (cell counting); assay type: cell-based, rat; conditions: for effect on the growth of normal rat1 cells: 0.1-50 μM, 3, 7 or 10 days, FIG. 7
Method: as §2, §3, §4
[…] For counting, cells were detached from plates with trypsin/EDTA, and collected by a low speed spin in the presence of DMEM/10% FCS. The pelleted cells were resuspended in a small volume of DMEM/10% FCS and counted under the microscope. Viability of cells was estimated by staining with (3-(4,5-dimethylthiosol-2-yl)-2,5-diphenyltetrazolium bromide (MTT) and microscopic examination of the stained and unstained cells, or spectrophotometric estimation (OD490, 590) of the total stain in each well. Non viable cells were estimated by the trypan blue exclusion method.
Cells were plated at a density 2×10^3/well and received either solvent or drugs one day later. Following 3, 7, or 10 days of the drugs-treatment as described above, cells were collected and the number of cells in each well was estimated by direct counting. […]

[3] = Homo sapiens, HEC-1-A, 72 h, at 10 μM FTS or 50 μM FTA, read-out: maximal effects, inhibition of growth

Row | Compound | concentration of maximal effects on growth [1] [µM] | Emax [1, 3] [%] | EC50 [2] [µM] | drug concentration of maximum inhibition of cell growth ([2]; days 7 and 10 of treatment) [µM] | effect on the growth of normal rat1 cells (untransformed rat1 cells) | Emax at 10 µM [1, 3] [%] | active at concentrations times lower than those of FTA [2] [times] | Number of cells (% of control) ([2]; Hs-cis-transformed rat1, 25 μM, day 5) | inhibition of ras-transformed rat1 cell-growth ([2]; drugs on the very same day of plating) | Number of cells (% of control) (untransformed rat1 cells; Ras1, 25 μM, day 5)
1 | CC(C)=CCC/C(C)=C/CC/C(C)=C/CSCC(=O)O [FTA, S-trans, trans-farnesylthioacetic acid, reference compound] | 50 | ~50 | 25 to 50 | 50 | neither FTA nor FTS has any significant effect |  |  |  |  | 
2 | CC(C)=CCC/C(C)=C/CC/C(C)=C/CSc1ccccc1C(=O)O [FTS, (3,7,11-trimethyl-dodeca-2,6,10-trienyl)-2-thiobenzoic acid] | 10 |  | 5 to 10 |  | neither FTA nor FTS has any significant effect | ~50 | 10 | 52 ± 4 % of control | observed already after 3 days in culture | 97 ± 10 % of control
